Assay results reported in US20180303845A1, “USE OF TLR8 AGONISTS TO TREAT CANCER” (VentiRx Pharmaceuticals, Inc., priority 2015, published 2018).

What was measured:
[1] = tested on: recurrent or metastatic SCCHN; details: cited from earlier work
[2] = tested on: HNC; details: cited from earlier work
[3] = tested on: PBMC; experiment: PBMC cytokine release, multiplex cytokine assay; assay type: cell-based
Method: (§1) PBMC cytokine release was also measured using a multiplex cytokine assay. FcγR III-158 genotype was determined using a quantitative PCR-based assay kit. Significant differences in ADCC by FcγR Ma or TLR8 genotype were determined using a Kruskal-Wallis one-way analysis of variance, and a post hoc Mann-Whitney non-parametric t test was performed for differences between groups. For cytokine analysis, a Mann-Whitney non-parametric test was performed.

[4] = tested on: EGFR^| UM-22B HNC cells; experiment: 51Cr release assay of cetuximab-mediated ADCC by motolimod-pre-treated PBMC or isolated NK; assay type: cell-based
Method: as §1

CCCN(CCC)C(=O)C1=Cc2ccc(-c3ccc(C(=O)N4CCCC4)cc3)cc2N=C(N)C1 [motolimod, 2-amino-N,N-dipropyl-8-[4-(pyrrolidin-1-ylcarbonyl)phenyl]-3H-1-benzazepine-4-carboxamide]
clinical activity (pharmacologic evidence) ([1]; in combination with cetuximab, escalating doses of motolimod): dose-dependent clinical activity
safety profile ([1]; motolimod days 1, 8, 15 in combination with weekly cetuximab, 28-day cycles): acceptable safety profile
cetuximab-mediated ADCC and DC IVS of CD8^+ T cells in HNC ([2]; in vitro): significantly enhances
DC maturation and cross-priming of CD8^+ cells ([2]; motolimod in combination with cetuximab): enhances
IFN-γ secretion, treated versus untreated PBMC ([3]; p<0.0001): significantly higher levels
TNF-α secretion, treated versus untreated PBMC ([3]; p<0.0001): significantly higher levels
IL-12p40 secretion, treated versus untreated PBMC ([3]; p=0.0002): significantly higher levels
IL-12p70 secretion, treated versus untreated PBMC ([3]; p=0.03): significantly higher levels
cetuximab-mediated ADCC by TLR8 stimulated PBMC from HNC patients ([4]; PBMC from HNC patients, p=0.0262): more avid effectors
enhancement of ADCC lytic activity in NK, FcγR IIIc FF genotype ([4]; motolimod 250 nM 18 hr pre-treatment, cetuximab 10 μg/mL, 4 hr, FF genotype): 2.6 fold
enhancement of ADCC lytic activity in NK, VF genotype ([4]; motolimod 250 nM 18 hr pre-treatment, cetuximab 10 μg/mL, 4 hr, VF genotype): 1.7 fold
enhancement of ADCC lytic activity in NK, VV genotype ([4]; motolimod 250 nM 18 hr pre-treatment, cetuximab 10 μg/mL, 4 hr, VV genotype): 1.8 fold
cetuximab-mediated ADCC against HNC cells ([4]; summary statement): enhanced
